According to the NIST ThermoML archive (doi:10.1016/j.jct.2016.09.005):
± gives the expanded uncertainty stated by the source.

Details: Fluid (supercritical or subcritical phases), Brillouin Light Scattering

CC(C)OC(C)C [diisopropyl ether]
Details | speed of sound [m/s]
541.51 K, 6500 kPa | 190.79 ± 4.2
544.16 K, 3500 kPa | 139.1 ± 2.2
545.71 K, 4500 kPa | 129.23 ± 2
546.93 K, 5500 kPa | 147.8 ± 3.2
547.24 K, 6500 kPa | 183.8 ± 4
551 K, 3500 kPa | 147.92 ± 2.4
554.09 K, 4500 kPa | 137.04 ± 2.1
554.6 K, 5500 kPa | 142.16 ± 2.6
555.23 K, 6500 kPa | 172.31 ± 3.6
556.02 K, 3500 kPa | 156.04 ± 2.5
562.71 K, 3500 kPa | 162.02 ± 2.5
564.46 K, 4500 kPa | 151.45 ± 2.4
564.68 K, 5500 kPa | 144.2 ± 2.3
564.77 K, 6500 kPa | 162.69 ± 2.9
568.12 K, 3500 kPa | 172.59 ± 2.7
570.23 K, 4500 kPa | 159.8 ± 2.5
570.32 K, 6500 kPa | 155.46 ± 2.5
571.21 K, 5500 kPa | 149.54 ± 2.3
572.24 K, 3500 kPa | 178.24 ± 2.7
574.75 K, 6500 kPa | 156.08 ± 2.4
575.87 K, 4500 kPa | 166.92 ± 2.6
576.95 K, 5500 kPa | 157.61 ± 2.4
578.05 K, 3500 kPa | 184.2 ± 2.8
580.81 K, 6500 kPa | 160.95 ± 2.5
582.97 K, 4500 kPa | 176.94 ± 2.7
583.61 K, 3500 kPa | 191.39 ± 2.9
583.79 K, 5500 kPa | 168.45 ± 2.6
586.87 K, 6500 kPa | 165.44 ± 2.5
587.28 K, 5500 kPa | 174.08 ± 2.7
588.06 K, 4500 kPa | 184.23 ± 2.8
588.82 K, 3500 kPa | 197.63 ± 3
591.77 K, 3500 kPa | 201.8 ± 3
592.03 K, 6500 kPa | 173.69 ± 2.6
592.07 K, 4500 kPa | 191.01 ± 2.9
592.51 K, 5500 kPa | 179.58 ± 2.8
595.88 K, 6500 kPa | 181.47 ± 2.7
597.6 K, 4500 kPa | 197.93 ± 2.9
597.6 K, 5500 kPa | 185.96 ± 2.8
597.62 K, 3500 kPa | 207.01 ± 3
602.12 K, 3500 kPa | 213.74 ± 3.1
602.56 K, 4500 kPa | 203.87 ± 3
603.22 K, 6500 kPa | 189.62 ± 2.8
603.37 K, 5500 kPa | 196.7 ± 3
607.19 K, 4500 kPa | 209.92 ± 3.1
607.26 K, 5500 kPa | 201.24 ± 3
608.3 K, 3500 kPa | 220.34 ± 3.2
608.98 K, 6500 kPa | 198.69 ± 3
612.23 K, 3500 kPa | 223.95 ± 3.3
612.23 K, 4500 kPa | 214.66 ± 3.1
612.33 K, 5500 kPa | 208.84 ± 3.1
612.73 K, 6500 kPa | 201.04 ± 3
617.47 K, 4500 kPa | 220.52 ± 3.2
618 K, 3500 kPa | 231.2 ± 3.4
618.05 K, 5500 kPa | 215.78 ± 3.2
618.31 K, 6500 kPa | 208.27 ± 3.1
622.27 K, 3500 kPa | 235.81 ± 3.4
623.05 K, 5500 kPa | 219.38 ± 3.2
623.51 K, 4500 kPa | 226.31 ± 3.3
623.75 K, 6500 kPa | 213.55 ± 3.2
626.85 K, 5500 kPa | 224.98 ± 3.3
627.63 K, 6500 kPa | 217.44 ± 3.2
627.65 K, 3500 kPa | 240.7 ± 3.5
628.55 K, 4500 kPa | 231.82 ± 3.4
632.23 K, 4500 kPa | 235.83 ± 3.4
632.72 K, 5500 kPa | 227.82 ± 3.4
632.86 K, 3500 kPa | 243.95 ± 3.5
633.54 K, 6500 kPa | 221.63 ± 3.3
637.16 K, 6500 kPa | 225.18 ± 3.3
638.22 K, 3500 kPa | 249.88 ± 3.6
638.59 K, 4500 kPa | 240.88 ± 3.5
638.75 K, 5500 kPa | 232.85 ± 3.4
642.34 K, 6500 kPa | 228.66 ± 3.4
643.55 K, 4500 kPa | 245.98 ± 3.6
643.72 K, 3500 kPa | 254.88 ± 3.7
644.35 K, 5500 kPa | 237.43 ± 3.5
648.15 K, 5500 kPa | 239.71 ± 3.5
648.16 K, 6500 kPa | 231.72 ± 3.4
648.36 K, 3500 kPa | 257.88 ± 3.7
648.6 K, 4500 kPa | 250.01 ± 3.6
652.25 K, 4500 kPa | 253.58 ± 3.7
652.83 K, 5500 kPa | 244.43 ± 3.6
653.38 K, 3500 kPa | 263.46 ± 3.8
653.97 K, 6500 kPa | 236.88 ± 3.5
657.92 K, 5500 kPa | 246.91 ± 3.6
658.37 K, 4500 kPa | 256.34 ± 3.7
658.49 K, 6500 kPa | 239.95 ± 3.5
658.61 K, 3500 kPa | 265.77 ± 3.8
662.18 K, 5500 kPa | 249.76 ± 3.7
662.28 K, 4500 kPa | 259.34 ± 3.7
663.04 K, 6500 kPa | 242.15 ± 3.5
664.11 K, 3500 kPa | 269.84 ± 3.9
667.5 K, 5500 kPa | 252.59 ± 3.7
667.83 K, 4500 kPa | 264.18 ± 3.8
667.84 K, 6500 kPa | 245.05 ± 3.6
668.59 K, 3500 kPa | 271.89 ± 3.9
670.57 K, 5500 kPa | 254.53 ± 3.7
671.41 K, 6500 kPa | 247.45 ± 3.6
672.38 K, 4500 kPa | 265.43 ± 3.8
672.56 K, 3500 kPa | 274.52 ± 3.9
